Publication PMC7937321 (Genes and Environment, 2021)
Like-named read-outs stand apart in the source and are kept apart here.

Tests used:
[1] = system: human lymphoblastoid TK6 cells, thymidine kinase gene; test: TK gene mutation assay (TK6 assay, OECD TG490); details: for MF: graph data
Description: In principle, this collaborative study conducted the treatment of test substances, the dose finding, and the main test of TK6 assays, according to the OECD Guideline TG490 [17]. […] Briefly, test substances were dissolved in an appropriate solvent (DMSO or ethanol) and then serially diluted to prepare final concentrations. […] The 4 h and 24 h treatments were conducted by shaking and static exposures, respectively. After treatment with test substances, cells were centrifuged (1000 rpm, 5 min), supernatants were removed, and cells were washed with a serum-free medium or Hank’s Balanced Salt Solution. After centrifugation (1000 rpm, 5 min) to remove the supernatant, cells (2 × 10^7 cells) were dispersed in an RPMI medium containing 10% serum, and cell concentration was measured. Treated cells were cultured at 37 °C with 5% CO2 condition and used for TK6 assays. At that time, to calculate the cloning efficiency (CE) (Eq. 1), the cells were cultured in a 96-well microplate at a concentration of about 1.6 cells/well for 2 weeks.
The TK6 assay is conducted between 20 and 10% RS0 as a maximum dose if cytotoxicity is observed. If no precipitate or limiting cytotoxicity was observed, the maximum dose was the lowest concentration among 10 mM, 2 mg/mL, or 2 μL/mL of the test substance. When the main TK6 assay was difficult to conduct under the condition of RS0 values from 20 to 10%, the test was conducted between 20 and 10% relative total growth (RTG), described later, as a maximum dose.
On the third day of culture, CE3 plates for determining plating efficiency and mutant frequency (MF) plates for mutation detection were prepared. CE3 plates were seeded in 96-well microplates at a concentration of about 1.6 cells/well. The MF plates were seeded in 96-well microplates at 40,000 cells/well in the presence of 3 μg/mL of trifluorothymidine (Sigma Aldrich).
Mutant colonies in MF plates were calculated using Eq. 7 using the Poisson distribution. EW was the number of wells without colonies, and TW was the total number of wells. N was the average number of cells per well (N = 40,000 in this study). The data were statistically analyzed by Omori’s method, a modified Dunnett’s procedure for identifying clear negatives, a Simpson–Margolin procedure for detecting downturn data, and a trend test to evaluate the dose dependency [42, 43]. The acceptability criterion for the test was that the MF value of the positive control group of each laboratory was increased with statistical significance compared with that of the concurrent negative control group.

[2] = system: TA1538, TA100, TA98, TA97, TA1535; details: cited from earlier work
[3] = system: L5178Y mouse lymphoma cells; details: ref [27], [46]-[53], Table 3, cited from earlier work
[4] = 24 h treatment, -S9 mix, 173.70 μg/mL
[5] = 24 h treatment, -S9 mix, 277.90 μg/mL
[6] = 24 h treatment, -S9 mix, 444.70 μg/mL
[7] = 24 h treatment, -S9 mix, 711.5 μg/mL
[8] = 24 h treatment, -S9 mix, 1138.4 μg/mL
[9] = 24 h treatment, -S9 mix, 1821.4 μg/mL
[10] = Long-term treatment without metabolic activation
[11] = Short treatment, +S9 mix, dose 173.7 μg/mL
[12] = Short treatment, +S9 mix, dose 277.9 μg/mL
[13] = Short treatment, +S9 mix, dose 445 μg/mL
[14] = Short treatment, +S9 mix, dose 712 μg/mL
[15] = Short treatment, +S9 mix, dose 1138 μg/mL
[16] = Short treatment, +S9 mix, dose 1821 μg/mL
[17] = Short treatment, -S9 mix, dose 173.70 μg/mL
[18] = Short treatment, -S9 mix, dose 277.90 μg/mL
[19] = Short treatment, -S9 mix, dose 444.70 μg/mL
[20] = Short treatment, -S9 mix, dose 711.5 μg/mL
[21] = Short treatment, -S9 mix, dose 1138.4 μg/mL
[22] = Short treatment, -S9 mix, dose 1821.4 μg/mL

Nc1cc([N+](=O)[O-])ccc1C(=O)O [4-Nitroanthranilic acid]
TK6 assay result (mutant frequency increase, judgment) ([1]; 4h treatment (+S9)): no increase in mutation frequency | TK6 assay result (mutant frequency increase, judgment) ([1]; 4h treatment (+S9), listed as 4-nitroanthranilic acid): negative | TK6 assay result (mutant frequency increase, judgment) ([1]; 4h treatment (-S9)): no increase in mutation frequency | TK6 assay result (mutant frequency increase, judgment) ([1]; 4h treatment (-S9), listed as 4-nitroanthranilic acid): negative | TK mutation assay, Long term ([1]; 24 h, without S9): Pos | TK6 assay result (mutant frequency increase, judgment) ([1]; 24h treatment (-S9)): statistically significant increase in mutation frequency | TK6 assay result (mutant frequency increase, judgment) ([1]; 24h treatment (-S9), listed as 4-nitroanthranilic acid): positive | %SG [1, 4]: 68.7% | Mut. freq. (×10-6) N-MF [1, 4]: 1.8 ×10-6 | Mut. freq. (×10-6) S-MF [1, 4]: 3.9 ×10-6 | Mut. freq. (×10-6) T-MF [1, 4]: 5.6 ×10-6 | %SG [1, 5]: 61.0% | Mut. freq. (×10-6) N-MF [1, 5]: 3.1 ×10-6 | Mut. freq. (×10-6) S-MF [1, 5]: 4.8 ×10-6 | Mut. freq. (×10-6) T-MF [1, 5]: 7.9 ×10-6 | %SG [1, 6]: 63.1% | Mut. freq. (×10-6) N-MF [1, 6]: 2.6 ×10-6 | Mut. freq. (×10-6) S-MF [1, 6]: 4.4 ×10-6 | Mut. freq. (×10-6) T-MF [1, 6]: 7.0 ×10-6 | %SG [1, 7]: 72.4% | Mut. freq. (×10-6) N-MF [1, 7]: 3.0 ×10-6 | Mut. freq. (×10-6) S-MF [1, 7]: 7.8 ×10-6 | Mut. freq. (×10-6) T-MF [1, 7]: 10.7 ×10-6 | %SG [1, 8]: 57.1% | Mut. freq. (×10-6) N-MF [1, 8]: 4.1 ×10-6 | Mut. freq. (×10-6) S-MF [1, 8]: 5.5 ×10-6 | Mut. freq. (×10-6) T-MF [1, 8]: 9.7 ×10-6 | %SG [1, 9]: 68.5% | Mut. freq. (×10-6) N-MF [1, 9]: 4.4 ×10-6 | Mut. freq. (×10-6) S-MF [1, 9]: 9.5 ×10-6 | Mut. freq. (×10-6) T-MF [1, 9]: 13.9 ×10-6 | Dunnett type test, test statistic [1, 10]: 2.990 | Trend test, test statistic [1, 10]: 4.178 | %SG [1, 11]: 38.9% | Mut. freq. (×10-6) N-MF [1, 11]: 6.7 ×10-6 | Mut. freq. (×10-6) S-MF [1, 11]: 4.3 ×10-6 | Mut. freq. (×10-6) T-MF [1, 11]: 10.9 ×10-6 | %SG [1, 12]: 40.2% | Mut. freq. (×10-6) N-MF [1, 12]: 6.1 ×10-6 | Mut. freq. (×10-6) S-MF [1, 12]: 4.1 ×10-6 | Mut. freq. (×10-6) T-MF [1, 12]: 10.3 ×10-6 | %SG [1, 13]: 44.7% | Mut. freq. (×10-6) N-MF [1, 13]: 4.6 ×10-6 | Mut. freq. (×10-6) S-MF [1, 13]: 3.7 ×10-6 | Mut. freq. (×10-6) T-MF [1, 13]: 8.4 ×10-6 | %SG [1, 14]: 49.2% | Mut. freq. (×10-6) N-MF [1, 14]: 5.5 ×10-6 | Mut. freq. (×10-6) S-MF [1, 14]: 5.3 ×10-6 | Mut. freq. (×10-6) T-MF [1, 14]: 10.7 ×10-6 | %SG [1, 15]: 37.9% | Mut. freq. (×10-6) N-MF [1, 15]: 6.4 ×10-6 | Mut. freq. (×10-6) S-MF [1, 15]: 3.9 ×10-6 | Mut. freq. (×10-6) T-MF [1, 15]: 10.3 ×10-6 | %SG [1, 16]: 43.4% | Mut. freq. (×10-6) N-MF [1, 16]: 6.4 ×10-6 | Mut. freq. (×10-6) S-MF [1, 16]: 4.9 ×10-6 | Mut. freq. (×10-6) T-MF [1, 16]: 11.3 ×10-6 | %SG [1, 17]: 60.5% | Mut. freq. (×10-6) N-MF [1, 17]: 3.6 ×10-6 | Mut. freq. (×10-6) S-MF [1, 17]: 5.5 ×10-6 | Mut. freq. (×10-6) T-MF [1, 17]: 9.0 ×10-6 | %SG [1, 18]: 56.6% | Mut. freq. (×10-6) N-MF [1, 18]: 3.8 ×10-6 | Mut. freq. (×10-6) S-MF [1, 18]: 4.9 ×10-6 | Mut. freq. (×10-6) T-MF [1, 18]: 8.7 ×10-6 | %SG [1, 19]: 46.7% | Mut. freq. (×10-6) N-MF [1, 19]: 4.2 ×10-6 | Mut. freq. (×10-6) S-MF [1, 19]: 3.7 ×10-6 | Mut. freq. (×10-6) T-MF [1, 19]: 7.9 ×10-6 | %SG [1, 20]: 48.9% | Mut. freq. (×10-6) N-MF [1, 20]: 4.3 ×10-6 | Mut. freq. (×10-6) S-MF [1, 20]: 4.2 ×10-6 | Mut. freq. (×10-6) T-MF [1, 20]: 8.5 ×10-6 | %SG [1, 21]: 52.7% | Mut. freq. (×10-6) N-MF [1, 21]: 3.7 ×10-6 | Mut. freq. (×10-6) S-MF [1, 21]: 4.1 ×10-6 | Mut. freq. (×10-6) T-MF [1, 21]: 7.8 ×10-6 | %SG [1, 22]: 65.9% | Mut. freq. (×10-6) N-MF [1, 22]: 3.0 ×10-6 | Mut. freq. (×10-6) S-MF [1, 22]: 5.9 ×10-6 | Mut. freq. (×10-6) T-MF [1, 22]: 9.0 ×10-6 | Dunnett type test, test statistic ([1]; Short-term treatment with metabolic activation): 0.732 | Dunnett type test, test statistic ([1]; Short-term treatment without metabolic activation): 0.791 | MF ([1]; 24 h, -S9 mix, 173.70 μg/mL): 5.6 | MF ([1]; 24 h, -S9 mix, 277.90 μg/mL): 7.9 | MF ([1]; 24 h, -S9 mix, 444.70 μg/mL): 7.0 | MF ([1]; 24 h, -S9 mix, 711.5 μg/mL): 10.7 | MF ([1]; 24 h, -S9 mix, 1138.4 μg/mL): 9.7 | MF ([1]; 24 h, -S9 mix, 1821.4 μg/mL): 13.9 | MF [1, 11]: 10.9 | MF [1, 12]: 10.3 | MF ([1]; Short treatment, +S9 mix, dose 444.7 μg/mL): 8.4 | MF ([1]; Short treatment, +S9 mix, dose 711.5 μg/mL): 10.7 | MF ([1]; Short treatment, +S9 mix, dose 1138.4 μg/mL): 10.3 | MF ([1]; Short treatment, +S9 mix, dose 1821.4 μg/mL): 11.3 | MF [1, 17]: 9.0 | MF [1, 18]: 8.7 | MF [1, 19]: 7.9 | MF [1, 20]: 8.5 | MF [1, 21]: 7.8 | MF [1, 22]: 9.0 | TK mutation assay, With S9 ([1]; short-term 4 h, with rat liver S9): Neg | TK mutation assay, Without S9 ([1]; short-term 4 h, without S9): Neg | The Highest Specific Activity and the Strain ([2]; TA100 with S9, ref Table 2): 2830 revertants/mg | The Highest Specific Activity and the Strain ([2]; TA1535 with S9, ref [33]): 3600 revertants/mg | Bacterial reverse mutation assay, With S9 ([2]; with S9, ref [18]-[40], Table 2): Pos | Bacterial reverse mutation assay, Without S9 ([2]; without S9, ref [18]-[40], Table 2): Pos | MLA (TK gene locus), With S9 ([3]; with S9): Pos | MLA (TK gene locus), Without S9 ([3]; without S9): Equivocal^d
